The source of these data is patent US20160159774A1 (Celgene Avilomics Research, Inc., priority 2014, published 2016).

The target of data set [1] is T1, BTK in Ramos human Burkitt lymphoma cells (Homo sapiens, UniProt Q06187).
T1 construct: Compounds of this invention were assayed in Ramos human Burkitt lymphoma cells; endogenous in cells; host or cells: Ramos human Burkitt lymphoma cells
As to the kind of experiment: BTK Ramos cellular assay (BTK occupancy). In kind it is cell-based. To be noted: concentration producing 50% occupancy of BTK, 1 hour incubation with compound. In a few lines: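 Ramos cells at 2×10^6 cells/mL in serum-free medium treated 1 hour with compound (500 to 0.7 nM final), then lysed. Free BTK captured by biotinylated covalent probe (1 μM final, 1 h) on streptavidin plate, detected by anti-Btk ELISA at OD 450 nm against recombinant Btk standard, normalized to total protein; value is concentration giving 50% occupancy.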

A further data set addresses T2, activated BTK enzyme (Homo sapiens, UniProt Q06187).
T2 construct: purchased Life Technologies PV3363
As to the kind of experiment: Omnia assay for potency assessment against BTK. As to conditions: BTK inhibition assay; [BTK]=5 nM, [ATP]=40 μM, [Y5-Sox]=10 μM. Format: biochemical. Put shortly: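 Activated BTK (5 nM) was pre-incubated 30 min at room temperature with compound, then reacted with 40 μM ATP (KMapp ~36 μM) and 10 μM Y5-Sox peptide in Tris pH 7.5/MgCl2/EGTA/DTT buffer. Sox fluorescence (ex360/em485) followed for 60 min; IC50 from initial velocities (~0–30 min) by variable-slope fit.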

A value given as a limit tells only on which side of the number the result lay.

T2 sequence (Q06187 whole entry): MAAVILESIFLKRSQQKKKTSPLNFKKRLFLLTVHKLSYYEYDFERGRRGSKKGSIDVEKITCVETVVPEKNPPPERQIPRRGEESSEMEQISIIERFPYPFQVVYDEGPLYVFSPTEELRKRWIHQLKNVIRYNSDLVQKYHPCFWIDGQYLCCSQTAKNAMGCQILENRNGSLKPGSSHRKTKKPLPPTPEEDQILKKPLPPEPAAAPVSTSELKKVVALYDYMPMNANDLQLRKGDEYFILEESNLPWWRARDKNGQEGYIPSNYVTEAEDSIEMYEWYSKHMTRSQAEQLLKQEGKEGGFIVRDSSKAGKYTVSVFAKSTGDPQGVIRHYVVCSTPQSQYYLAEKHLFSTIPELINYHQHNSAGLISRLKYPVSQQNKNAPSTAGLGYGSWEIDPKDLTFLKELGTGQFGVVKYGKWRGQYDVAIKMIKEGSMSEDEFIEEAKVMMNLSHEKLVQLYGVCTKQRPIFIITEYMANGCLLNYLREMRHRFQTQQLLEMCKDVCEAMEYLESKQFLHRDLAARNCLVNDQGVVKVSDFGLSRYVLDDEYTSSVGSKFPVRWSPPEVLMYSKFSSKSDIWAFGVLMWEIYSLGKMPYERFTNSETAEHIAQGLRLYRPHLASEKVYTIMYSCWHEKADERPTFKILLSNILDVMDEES
T1 sequence (Q06187 whole entry): as above

Broadly, the EC50 is the midpoint of the concentration-response curve. By IC50 is commonly meant the concentration that inhibits the measured activity by half. As a reminder, the melting point is the temperature, or range, at which the solid turns liquid. Turning to `C=CC(=O)N1CCC[C@@H](Nc2nc(Nc3ccc4c(c3)CCN(C)CC4)ncc2F)C1` [Compound I-58, (R)-1-(3-(5-Fluoro-2-(3-methyl-2,3,4,5-tetrahydro-1H-benzo[d]azepin-7-ylamino)pyrimidin-4-ylamino)piperidin-1-yl)prop-2-en-1-one], the melting point fell in the range of 102 to 104 °C. In addition, in data set [1], the EC50 was less than 10 nM. The IC50 on activated BTK enzyme is less than 10 nM.
For `C=CC(=O)N1CCC[C@@H](Nc2nc(Nc3ccc4c(c3)CN(C)C4=O)ncc2F)C1` [Compound I-61, (R)-5-(4-(1-Acryloylpiperidin-3-ylamino)-5-fluoropyrimidin-2-ylamino)-2-methylisoindolin-1-one], the melting point fell in the range of 120 to 122 °C. In data set [1], the EC50 lay within 10 to 100 nM. Also, the IC50 on activated BTK enzyme was less than 10 nM.
The compound `C=CC(=O)N1CCC[C@@H](Nc2nc(Nc3ccc4c(c3)CN(C3CC3)CC4)ncc2F)C1` [Compound I-48, (R)-1-(3-(2-(2-Cyclopropyl-1,2,3,4-tetrahydroisoquinolin-7-ylamino)-5-fluoropyrimidin-4-ylamino)piperidin-1-yl)prop-2-en-1-one] displayed a melting point of 105 to 107 °C. Further, in data set [1], the EC50 is less than 10 nM. Moreover, the half-inhibitory concentration (IC50) at activated BTK enzyme was less than 10 nM.
The compound `C=CC(=O)N1CCC[C@@H](Nc2nc(Nc3ccc4c(c3)CCN(CC3COC3)CC4)ncc2F)C1` [Compound I-59, (R)-1-(3-(5-Fluoro-2-(3-(oxetan-3-ylmethyl)-2,3,4,5-tetrahydro-1H-benzo[d]azepin-7-ylamino)pyrimidin-4-ylamino)piperidin-1-yl)prop-2-en-1-one] displayed a melting point of 104 to 106 °C. In addition, the concentration for a half-maximal effect (EC50) in data set [1] is less than 10 nM. Also, the IC50 at activated BTK enzyme was less than 10 nM.
`C=CC(=O)N1CCC[C@@H](Nc2nc(Nc3ccc4c(c3)CN(CC3CC3)CC4)ncc2F)C1` [Compound I-47, (R)-1-(3-(2-(2-(Cyclopropylmethyl)-1,2,3,4-tetrahydroisoquinolin-7-ylamino)-5-fluoropyrimidin-4-ylamino)piperidin-1-yl)prop-2-en-1-one]: the melting point lay in the range of 80 to 82 °C. Moreover, the EC50 in data set [1] was less than 10 nM. Further, the IC50 on activated BTK enzyme was less than 10 nM.
`C=CC(=O)N1CCC[C@@H](Nc2nc(Nc3ccc4c(c3)CN(C(C)(C)C)CC4)ncc2F)C1` [Compound I-49, (R)-1-(3-(2-(2-tert-Butyl-1,2,3,4-tetrahydroisoquinolin-7-ylamino)-5-fluoropyrimidin-4-ylamino)piperidin-1-yl)prop-2-en-1-one] yielded a melting point of 118 to 121 °C. For the same compound, the EC50 in data set [1] was 10 to 100 nM. Also, on activated BTK enzyme, the half-inhibitory concentration (IC50) is less than 10 nM.
For the compound `C=CC(=O)N1CCC[C@@H](Nc2nc(Nc3ccc4c(c3)CN(CC3COC3)CCC4)ncc2F)C1` [Compound I-56, (R)-1-(3-(5-Fluoro-2-(2-(oxetan-3-ylmethyl)-2,3,4,5-tetrahydro-1H-benzo[c]azepin-8-ylamino)pyrimidin-4-ylamino)piperidin-1-yl)prop-2-en-1-one], the melting point was 103 to 105 °C. In data set [1], the EC50 lay in the range of 10 to 100 nM. The concentration for half-maximal inhibition (IC50) on activated BTK enzyme was less than 10 nM.
On to `C=CC(=O)N1CCC[C@@H](Nc2nc(Nc3cc(F)c4c(c3)CN(C)C4)ncc2F)C1` [Compound I-37, (R)-1-(3-(5-Fluoro-2-(7-fluoro-2-methylisoindolin-5-ylamino)pyrimidin-4-ylamino)piperidin-1-yl)prop-2-en-1-one], for which, in data set [1], the EC50 lay within 101 to 1000 nM. Further, the IC50 on activated BTK enzyme was less than 10 nM.
For the compound `C=CC(=O)N1CCC[C@@H](Nc2nc(Nc3ccc4c(c3)CCN(C)C4)ncc2F)C1` [Compound I-28, (R)-1-(3-((5-Fluoro-2-((2-methyl-1,2,3,4-tetrahydroisoquinolin-6-yl)amino)-pyrimidin-4-yl)amino)piperidin-1-yl)prop-2-en-1-one], the EC50 in data set [1] was in the range of 10 to 100 nM. Moreover, the IC50 on activated BTK enzyme is less than 10 nM.
